Data reported in ChEMBL document CHEMBL1201862, “PubChem BioAssay data set” (2004).
The source made the active and inactive calls. Rule as the data show it: actives have a measured IC50 and inactives only a lower limit.

Target: Envelope glycoprotein gp160 (Human immunodeficiency virus 1, UniProt Q6QLK5)
Assay: cell-free HIV fusion peptide-binding blockers – biochemical, uHTS, fluorescence dequenching, […] (AID 1986)

Sequence of Envelope glycoprotein gp160 (Q6QLK5 whole entry, the tested form may be a part): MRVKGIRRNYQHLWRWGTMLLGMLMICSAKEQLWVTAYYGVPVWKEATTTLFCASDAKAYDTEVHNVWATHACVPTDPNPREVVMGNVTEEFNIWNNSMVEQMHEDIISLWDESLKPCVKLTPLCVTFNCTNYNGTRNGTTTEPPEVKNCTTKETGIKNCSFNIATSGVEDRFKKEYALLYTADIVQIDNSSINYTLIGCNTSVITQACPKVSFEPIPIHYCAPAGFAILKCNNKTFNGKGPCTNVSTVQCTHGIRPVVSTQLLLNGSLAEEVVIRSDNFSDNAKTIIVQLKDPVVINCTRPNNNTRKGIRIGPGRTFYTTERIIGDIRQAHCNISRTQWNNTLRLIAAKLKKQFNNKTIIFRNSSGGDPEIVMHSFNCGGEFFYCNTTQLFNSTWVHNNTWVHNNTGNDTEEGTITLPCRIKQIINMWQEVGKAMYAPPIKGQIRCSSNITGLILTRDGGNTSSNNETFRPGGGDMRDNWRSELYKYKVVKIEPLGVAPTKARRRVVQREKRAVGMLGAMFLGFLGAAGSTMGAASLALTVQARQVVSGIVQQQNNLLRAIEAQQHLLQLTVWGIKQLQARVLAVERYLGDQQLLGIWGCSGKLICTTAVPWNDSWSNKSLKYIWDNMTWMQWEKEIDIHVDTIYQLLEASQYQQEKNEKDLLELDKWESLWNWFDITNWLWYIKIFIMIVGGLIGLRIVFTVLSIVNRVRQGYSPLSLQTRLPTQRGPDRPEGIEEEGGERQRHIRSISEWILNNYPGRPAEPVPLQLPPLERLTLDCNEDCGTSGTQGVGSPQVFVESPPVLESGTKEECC

**Q.** For O=C(O)CN1C(=O)/C(=C\c2ccccc2OCc2ccc(Cl)cc2Cl)SC1=S, which IC50 is on record?
**A.** 16.1 µM (active)
